Measurements reported in ChEMBL document CHEMBL4507274 (2021).

Key:
[1] = biological target: Tyrosine-protein kinase ABL2 (Homo sapiens) (UniProt P42684); conditions: Compound concentration 100.0 nM
[2] = biological target: Atypical kinase COQ8A, mitochondrial (Homo sapiens) (UniProt Q8NI60); conditions: Compound concentration 100.0 nM
[3] = biological target: 5'-AMP-activated protein kinase catalytic subunit alpha-2 (Homo sapiens) (UniProt P54646); conditions: Compound concentration 100.0 nM
[4] = biological target: Bone morphogenetic protein receptor type-1B (Homo sapiens) (UniProt O00238); conditions: Compound concentration 100.0 nM
[5] = tested on: Serine/threonine-protein kinase B-raf (Homo sapiens), P15056 [V600E]; conditions: Compound concentration 100.0 nM
[6] = biological target: Serine/threonine-protein kinase BRSK2 (Homo sapiens) (UniProt Q8IWQ3); conditions: Compound concentration 100.0 nM
[7] = biological target: Calcium/calmodulin-dependent protein kinase type 1D (Homo sapiens) (UniProt Q8IU85); conditions: Compound concentration 100.0 nM
[8] = biological target: Ephrin type-A receptor 7 (Homo sapiens) (UniProt Q15375); conditions: Compound concentration 100.0 nM
[9] = biological target: Tyrosine-protein kinase Fgr (Homo sapiens) (UniProt P09769); conditions: Compound concentration 100.0 nM
[10] = biological target: Vascular endothelial growth factor receptor 3 (Homo sapiens) (UniProt P35916); conditions: Compound concentration 100.0 nM
[11] = biological target: Serine/threonine-protein kinase haspin (Homo sapiens) (UniProt Q8TF76); conditions: Compound concentration 100.0 nM
[12] = biological target: Insulin receptor-related protein (Homo sapiens) (UniProt P14616); conditions: Compound concentration 100.0 nM
[13] = biological target: Interleukin-1 receptor-associated kinase 4 (Homo sapiens) (UniProt Q9NWZ3); conditions: Compound concentration 100.0 nM
[14] = biological target: Mitogen-activated protein kinase kinase kinase 4 (Homo sapiens) (UniProt Q9Y6R4); conditions: Compound concentration 100.0 nM
[15] = biological target: Serine/threonine-protein kinase PAK 5 (Homo sapiens) (UniProt Q9P286); conditions: Compound concentration 100.0 nM
[16] = biological target: Cyclin-dependent kinase 18 (Homo sapiens) (UniProt Q07002); conditions: Compound concentration 100.0 nM
[17] = biological target: Phosphorylase b kinase gamma catalytic chain, skeletal muscle/heart isoform (Homo sapiens) (UniProt Q16816); conditions: Compound concentration 100.0 nM
[18] = tested on: Phosphatidylinositol 4,5-bisphosphate 3-kinase catalytic subunit alpha isoform (Homo sapiens), P42336 [C420R]; conditions: Compound concentration 100.0 nM
[19] = tested on: Phosphatidylinositol 4,5-bisphosphate 3-kinase catalytic subunit alpha isoform (Homo sapiens), P42336 [E545K]; conditions: Compound concentration 100.0 nM
[20] = biological target: Phosphatidylinositol 4,5-bisphosphate 3-kinase catalytic subunit beta isoform (Homo sapiens) (UniProt P42338); conditions: Compound concentration 100.0 nM
[21] = biological target: Phosphatidylinositol 4-phosphate 5-kinase type-1 alpha (Homo sapiens) (UniProt Q99755); conditions: Compound concentration 100.0 nM
[22] = biological target: T1, Serine/threonine-protein kinase D2 (Homo sapiens) (UniProt Q9BZL6); conditions: Compound concentration 100.0 nM
T1 sequence (whole entry): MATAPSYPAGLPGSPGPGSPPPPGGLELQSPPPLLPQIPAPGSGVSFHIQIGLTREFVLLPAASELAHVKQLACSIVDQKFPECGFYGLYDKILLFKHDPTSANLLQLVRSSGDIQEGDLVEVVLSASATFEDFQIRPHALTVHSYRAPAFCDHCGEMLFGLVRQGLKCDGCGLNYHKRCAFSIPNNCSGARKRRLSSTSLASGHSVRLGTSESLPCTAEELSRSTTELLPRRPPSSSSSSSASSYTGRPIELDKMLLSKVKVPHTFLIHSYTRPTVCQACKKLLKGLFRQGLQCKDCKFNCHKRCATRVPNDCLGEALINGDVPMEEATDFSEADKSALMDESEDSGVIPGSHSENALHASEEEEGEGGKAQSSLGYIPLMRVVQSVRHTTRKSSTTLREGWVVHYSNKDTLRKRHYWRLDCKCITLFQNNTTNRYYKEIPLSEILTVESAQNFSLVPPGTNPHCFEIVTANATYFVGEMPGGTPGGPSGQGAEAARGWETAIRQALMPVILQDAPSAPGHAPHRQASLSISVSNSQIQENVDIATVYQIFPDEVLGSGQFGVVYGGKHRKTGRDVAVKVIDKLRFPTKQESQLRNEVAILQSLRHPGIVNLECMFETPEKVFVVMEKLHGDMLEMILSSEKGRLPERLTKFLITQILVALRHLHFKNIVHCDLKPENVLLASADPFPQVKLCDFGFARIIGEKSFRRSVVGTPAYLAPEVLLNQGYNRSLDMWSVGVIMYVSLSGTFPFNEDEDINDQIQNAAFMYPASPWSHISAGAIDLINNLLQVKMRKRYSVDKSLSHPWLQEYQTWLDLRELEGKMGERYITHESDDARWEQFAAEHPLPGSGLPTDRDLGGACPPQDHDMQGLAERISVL

[23] = tested on: Proto-oncogene tyrosine-protein kinase receptor Ret (Homo sapiens), P07949 [V804L]; conditions: Compound concentration 100.0 nM
[24] = biological target: Receptor-interacting serine/threonine-protein kinase 1 (Homo sapiens) (UniProt Q13546); conditions: Compound concentration 100.0 nM
[25] = biological target: Proto-oncogene tyrosine-protein kinase ROS (Homo sapiens) (UniProt P08922); conditions: Compound concentration 100.0 nM
[26] = biological target: Ribosomal protein S6 kinase beta-1 (Homo sapiens) (UniProt P23443); conditions: Compound concentration 100.0 nM
[27] = biological target: Uncharacterized serine/threonine-protein kinase SBK3 (Homo sapiens) (UniProt P0C264); conditions: Compound concentration 100.0 nM
[28] = biological target: SRSF protein kinase 3 (Homo sapiens) (UniProt Q9UPE1); conditions: Compound concentration 100.0 nM
[29] = biological target: BDNF/NT-3 growth factors receptor (Homo sapiens) (UniProt Q16620); conditions: Compound concentration 100.0 nM
[30] = biological target: 5-hydroxytryptamine receptor 7 (Homo sapiens) (UniProt P34969); conditions: Compound concentration 10.0 uM
[31] = biological target: Mu-type opioid receptor (Homo sapiens) (UniProt P35372); conditions: Compound concentration 10.0 uM
[32] = biological target: Delta-type opioid receptor (Homo sapiens) (UniProt P41143); conditions: Compound concentration 10.0 uM
[33] = biological target: Kappa-type opioid receptor (Homo sapiens, UniProt P41145); conditions: Compound concentration 10.0 uM
Sequence of Kappa-type opioid receptor (P41145 whole entry): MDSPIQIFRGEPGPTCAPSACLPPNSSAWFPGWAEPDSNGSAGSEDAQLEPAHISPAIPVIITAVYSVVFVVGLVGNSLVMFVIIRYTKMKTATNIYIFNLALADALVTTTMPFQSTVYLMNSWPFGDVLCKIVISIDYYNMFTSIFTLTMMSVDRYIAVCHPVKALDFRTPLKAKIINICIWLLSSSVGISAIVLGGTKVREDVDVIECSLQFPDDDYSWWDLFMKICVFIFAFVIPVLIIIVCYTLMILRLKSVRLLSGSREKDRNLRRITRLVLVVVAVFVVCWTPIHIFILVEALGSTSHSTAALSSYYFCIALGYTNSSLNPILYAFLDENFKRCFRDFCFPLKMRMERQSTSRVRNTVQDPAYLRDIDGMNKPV

Sequence of SRSF protein kinase 3 (Homo sapiens) (Q9UPE1 whole entry): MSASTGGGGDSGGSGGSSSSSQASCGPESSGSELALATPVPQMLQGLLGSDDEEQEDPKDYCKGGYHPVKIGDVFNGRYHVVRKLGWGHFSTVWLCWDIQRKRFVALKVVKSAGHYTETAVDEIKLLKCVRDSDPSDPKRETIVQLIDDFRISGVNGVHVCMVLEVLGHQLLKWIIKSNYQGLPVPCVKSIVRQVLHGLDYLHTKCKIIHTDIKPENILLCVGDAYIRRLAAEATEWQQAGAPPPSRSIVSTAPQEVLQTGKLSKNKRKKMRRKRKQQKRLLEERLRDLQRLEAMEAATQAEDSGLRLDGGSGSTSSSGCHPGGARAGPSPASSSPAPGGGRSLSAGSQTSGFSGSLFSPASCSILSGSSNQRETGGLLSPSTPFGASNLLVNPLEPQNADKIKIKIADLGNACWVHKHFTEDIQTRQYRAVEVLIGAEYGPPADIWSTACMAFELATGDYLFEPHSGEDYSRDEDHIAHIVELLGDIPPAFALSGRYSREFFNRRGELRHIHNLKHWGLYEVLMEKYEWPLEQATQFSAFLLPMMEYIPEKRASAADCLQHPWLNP
Sequence of Vascular endothelial growth factor receptor 3 (Homo sapiens) (P35916 whole entry): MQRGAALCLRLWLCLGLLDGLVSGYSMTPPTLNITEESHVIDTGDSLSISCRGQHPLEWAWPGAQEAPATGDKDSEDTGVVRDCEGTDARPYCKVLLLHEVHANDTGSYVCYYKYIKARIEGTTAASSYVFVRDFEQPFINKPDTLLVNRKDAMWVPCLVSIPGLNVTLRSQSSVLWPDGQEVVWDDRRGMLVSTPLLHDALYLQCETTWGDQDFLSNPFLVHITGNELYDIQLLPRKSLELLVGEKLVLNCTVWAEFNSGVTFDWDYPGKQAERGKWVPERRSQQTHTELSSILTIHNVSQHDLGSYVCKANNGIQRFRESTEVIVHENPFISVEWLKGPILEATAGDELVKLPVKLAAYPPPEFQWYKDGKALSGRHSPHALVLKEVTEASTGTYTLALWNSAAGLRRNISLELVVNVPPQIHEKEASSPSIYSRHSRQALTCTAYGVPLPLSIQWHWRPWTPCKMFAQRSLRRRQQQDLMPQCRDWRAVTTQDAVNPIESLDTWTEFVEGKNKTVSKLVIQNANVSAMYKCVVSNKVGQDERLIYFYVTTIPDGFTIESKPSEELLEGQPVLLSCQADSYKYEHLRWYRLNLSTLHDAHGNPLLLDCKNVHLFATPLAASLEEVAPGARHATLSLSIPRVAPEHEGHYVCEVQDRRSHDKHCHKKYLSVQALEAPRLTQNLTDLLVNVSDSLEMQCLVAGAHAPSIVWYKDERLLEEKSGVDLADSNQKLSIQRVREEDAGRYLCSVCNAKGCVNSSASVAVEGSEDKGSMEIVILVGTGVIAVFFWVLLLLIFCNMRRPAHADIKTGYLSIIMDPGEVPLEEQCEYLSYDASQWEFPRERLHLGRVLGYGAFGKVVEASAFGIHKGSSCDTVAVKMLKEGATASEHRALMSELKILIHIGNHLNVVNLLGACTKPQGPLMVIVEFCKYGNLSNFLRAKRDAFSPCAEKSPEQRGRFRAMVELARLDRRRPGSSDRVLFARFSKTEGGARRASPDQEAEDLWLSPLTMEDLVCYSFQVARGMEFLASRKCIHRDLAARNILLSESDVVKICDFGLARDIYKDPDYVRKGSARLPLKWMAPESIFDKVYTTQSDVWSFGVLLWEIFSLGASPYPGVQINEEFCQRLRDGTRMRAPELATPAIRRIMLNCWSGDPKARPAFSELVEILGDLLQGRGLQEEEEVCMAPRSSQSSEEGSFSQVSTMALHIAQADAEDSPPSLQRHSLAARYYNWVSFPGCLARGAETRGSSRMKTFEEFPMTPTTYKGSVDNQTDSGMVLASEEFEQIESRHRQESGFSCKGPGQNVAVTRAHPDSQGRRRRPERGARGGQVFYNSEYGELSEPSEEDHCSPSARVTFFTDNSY
Sequence of Calcium/calmodulin-dependent protein kinase type 1D (Homo sapiens) (Q8IU85 whole entry, looked up): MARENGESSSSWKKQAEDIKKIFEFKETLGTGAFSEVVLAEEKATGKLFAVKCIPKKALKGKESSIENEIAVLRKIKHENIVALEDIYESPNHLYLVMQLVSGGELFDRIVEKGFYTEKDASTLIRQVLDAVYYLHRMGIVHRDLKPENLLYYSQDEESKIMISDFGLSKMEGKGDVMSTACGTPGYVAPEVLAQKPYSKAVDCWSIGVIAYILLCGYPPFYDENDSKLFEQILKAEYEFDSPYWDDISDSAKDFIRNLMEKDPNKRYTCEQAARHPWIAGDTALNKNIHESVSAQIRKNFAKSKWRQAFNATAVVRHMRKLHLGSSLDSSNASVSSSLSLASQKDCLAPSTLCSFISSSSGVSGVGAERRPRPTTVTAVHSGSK
Sequence of Phosphatidylinositol 4,5-bisphosphate 3-kinase catalytic subunit alpha isoform (Homo sapiens), P42336 [C420R] (P42336 whole entry C420R, canonical isoform): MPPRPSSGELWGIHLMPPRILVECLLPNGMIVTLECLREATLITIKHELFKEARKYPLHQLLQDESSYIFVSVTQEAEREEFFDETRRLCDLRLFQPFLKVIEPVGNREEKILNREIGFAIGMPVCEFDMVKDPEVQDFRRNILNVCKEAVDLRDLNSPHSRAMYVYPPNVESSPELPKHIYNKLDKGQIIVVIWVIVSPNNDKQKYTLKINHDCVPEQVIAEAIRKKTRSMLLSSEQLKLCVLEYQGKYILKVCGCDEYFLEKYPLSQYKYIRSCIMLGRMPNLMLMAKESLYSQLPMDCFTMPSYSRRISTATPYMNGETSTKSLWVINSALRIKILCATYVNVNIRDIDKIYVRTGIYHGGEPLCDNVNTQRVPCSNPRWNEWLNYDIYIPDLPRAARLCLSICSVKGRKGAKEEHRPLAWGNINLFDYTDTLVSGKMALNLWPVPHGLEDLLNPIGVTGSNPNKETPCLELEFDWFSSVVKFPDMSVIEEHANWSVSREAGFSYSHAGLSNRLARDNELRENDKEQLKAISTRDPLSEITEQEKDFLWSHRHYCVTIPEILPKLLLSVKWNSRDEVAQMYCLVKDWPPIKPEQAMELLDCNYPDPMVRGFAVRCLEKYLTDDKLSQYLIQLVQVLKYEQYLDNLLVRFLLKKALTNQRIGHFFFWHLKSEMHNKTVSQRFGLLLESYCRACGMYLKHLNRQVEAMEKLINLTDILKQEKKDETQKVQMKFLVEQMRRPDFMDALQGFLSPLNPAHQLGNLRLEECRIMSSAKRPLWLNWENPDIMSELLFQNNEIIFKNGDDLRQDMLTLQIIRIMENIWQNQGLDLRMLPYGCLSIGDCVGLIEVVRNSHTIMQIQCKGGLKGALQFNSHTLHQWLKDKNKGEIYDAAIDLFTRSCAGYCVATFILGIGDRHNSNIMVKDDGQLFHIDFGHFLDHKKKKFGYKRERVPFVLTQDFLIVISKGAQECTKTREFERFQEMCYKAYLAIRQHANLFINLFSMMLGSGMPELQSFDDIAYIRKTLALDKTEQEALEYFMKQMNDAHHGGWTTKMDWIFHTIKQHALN
Sequence of BDNF/NT-3 growth factors receptor (Homo sapiens) (Q16620 32-822 limits assumed): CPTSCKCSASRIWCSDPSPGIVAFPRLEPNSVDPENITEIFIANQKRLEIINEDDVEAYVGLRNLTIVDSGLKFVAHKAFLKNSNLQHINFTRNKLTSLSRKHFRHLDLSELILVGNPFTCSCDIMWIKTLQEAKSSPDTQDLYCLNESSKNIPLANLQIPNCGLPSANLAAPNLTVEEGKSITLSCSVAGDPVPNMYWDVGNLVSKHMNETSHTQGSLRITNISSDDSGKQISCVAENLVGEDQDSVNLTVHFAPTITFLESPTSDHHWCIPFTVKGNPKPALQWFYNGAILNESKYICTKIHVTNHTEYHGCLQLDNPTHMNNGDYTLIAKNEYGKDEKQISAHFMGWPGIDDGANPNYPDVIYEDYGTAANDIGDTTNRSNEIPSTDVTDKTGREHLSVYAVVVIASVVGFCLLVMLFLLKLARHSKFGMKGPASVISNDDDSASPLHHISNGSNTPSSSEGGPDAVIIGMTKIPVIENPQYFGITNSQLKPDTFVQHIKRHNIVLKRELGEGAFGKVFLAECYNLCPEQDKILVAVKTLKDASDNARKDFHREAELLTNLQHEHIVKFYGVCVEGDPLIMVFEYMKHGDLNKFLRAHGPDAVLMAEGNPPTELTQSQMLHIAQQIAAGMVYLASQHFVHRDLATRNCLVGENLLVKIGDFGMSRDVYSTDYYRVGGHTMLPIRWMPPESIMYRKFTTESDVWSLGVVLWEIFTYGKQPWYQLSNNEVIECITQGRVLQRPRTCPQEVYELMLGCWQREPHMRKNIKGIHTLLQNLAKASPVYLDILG
Sequence of Cyclin-dependent kinase 18 (Homo sapiens) (Q07002 whole entry, canonical isoform): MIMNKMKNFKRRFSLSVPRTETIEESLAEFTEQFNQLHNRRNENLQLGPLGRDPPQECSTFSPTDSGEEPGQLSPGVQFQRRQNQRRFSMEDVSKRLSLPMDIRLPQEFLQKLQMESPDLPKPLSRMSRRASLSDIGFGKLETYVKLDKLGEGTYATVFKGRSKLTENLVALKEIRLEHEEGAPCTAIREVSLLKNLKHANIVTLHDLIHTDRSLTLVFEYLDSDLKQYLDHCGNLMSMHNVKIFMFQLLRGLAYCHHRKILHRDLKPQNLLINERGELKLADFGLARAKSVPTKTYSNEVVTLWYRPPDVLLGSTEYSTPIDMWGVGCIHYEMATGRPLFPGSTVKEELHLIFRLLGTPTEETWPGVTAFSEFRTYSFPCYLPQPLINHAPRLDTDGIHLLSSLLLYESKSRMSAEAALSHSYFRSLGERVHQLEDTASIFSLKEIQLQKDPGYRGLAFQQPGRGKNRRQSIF

SMILES	residual activity [1] [%]	residual activity [2] [%]	residual activity [3] [%]	residual activity [4] [%]	residual activity [5] [%]	residual activity [6] [%]	residual activity [7] [%]	residual activity [8] [%]	residual activity [9] [%]	residual activity [10] [%]	residual activity [11] [%]	residual activity [12] [%]	residual activity [13] [%]	residual activity [14] [%]	residual activity [15] [%]	residual activity [16] [%]	residual activity [17] [%]	residual activity [18] [%]	residual activity [19] [%]	residual activity [20] [%]	other results
Cn1cc(Cl)c2c(Oc3c(F)cc(Nc4cc(Cl)nc(N)n4)cc3F)ccnc21 [BAY-4900]	99	100	97	86	100	100	100	96	100	96	74	100	90	100	90	100	100	82	78	82	residual activity [21]: 70%; residual activity [22]: 91%; residual activity [23]: 91%; residual activity [24]: 100%; residual activity [25]: 100%; residual activity [26]: 84%; residual activity [27]: 65%; residual activity [28]: 100%; residual activity [29]: 96%; inhibition [30]: -1.63%; inhibition [31]: -9.98%; inhibition [32]: -5.39%; inhibition [33]: 54.4%
Cc1c[nH]c2nccc(Oc3c(F)cc(Nc4cc(Cl)nc(N)n4)cc3F)c12 [BAY-549]	86	100	89	68	98	92	94	82	100	98	61	91	85	100	92	100	100	89	82	76	residual activity [21]: 68%; residual activity [22]: 94%; residual activity [23]: 100%; residual activity [24]: 100%; residual activity [25]: 96%; residual activity [26]: 85%; residual activity [27]: 87%; residual activity [28]: 100%; residual activity [29]: 94%; inhibition [30]: 9.29%; inhibition [31]: -0.03%; inhibition [32]: 7.96%; inhibition [33]: 64.6%
